Marks after values point to notes of the source that are not given here.
How the values were obtained:
LAMP-2 = LAMP-2 protein (immunoblot) and mRNA (RT-qPCR) in PMM-deficient fibroblasts; format: cell-based, human; settings: 10 μM epalrestat
Source text: (§1) Effect of epalrestat on glycosylation biomarkers in vitro: Immunoblotting and RT-qPCR were used to measure Intercellular Adhesion Molecule 1 (ICAM-1) and Lysosomal Associated Membrane Protein 2 (LAMP-2) protein and mRNA expression levels, respectively, as cellular markers of N-glycosylation (Ferrer et al., Mol Genet Metab 131:424-429, 2020; He et al., J Biol Chem 287:18210-18217, 2012; Eskelinen, Mol Aspects Med 27:495-502, 2006; and Radenkovic et al., Mol Genet Metab 132:27-37, 2021) in 10 PMM-deficient fibroblast lines (P1-P6, P8, P17, P19, and P24) and in control fibroblasts, treated with 10 μM epalrestat (the optimal dose based on PMM enzyme activity as described above).

[1] = system: urine sorbitol and mannitol; assay: Urine polyols (GC/MS) in patients with other CDG, post-treatment with epalrestat; format: in vivo, human
Protocol: Urine specimens were collected from patients known to have a CDG. The samples were spiked with a mixture of labeled internal standards, allowed to equilibrate, and evaporated. The dry residue was derivatized to form trimethylsilyl esters then extracted with hexane. Specimens were analyzed by GC/MS, with selected ion monitoring using ammonia chemical ionization and a stable isotope dilution method (Jansen et al. Clin Chim Acta 1986, 157:277-294; and Kaur et al., Eur J Med Genet 2019, 62(8):103708). Sorbitol levels were considered elevated when they were above 10 mmol/mol creatinine, and mannitol levels were considered elevated when they were above 15 mmol/mol creatinine.

child with PMM2-CDG = assay: Single patient (P1) study: safety and tolerability of oral epalrestat; format: in vivo, human; settings: for liver elastography Interquartile Range to Median ratio: normal below 25%
Protocol: Study design: An open label, single patient (P1) compassionate use study was designed to assess the safety and tolerability of oral epalrestat therapy in a child with PMM2-CDG.
(§2) Patient assessment: Prior to the first dose of epalrestat and at 1, 2, 3, 6, 8, 9, 12 months during treatment, concomitant medications and vital signs were recorded and the patient was evaluated using the NPCRS. In addition, blood was drawn for serum chemistry, hematology, and plasma levels of epalrestat. Urine was collected for polyol measurement at baseline and twice over the course of 12 months of therapy.
Drug administration: Epalrestat was administered orally, 3 times per day (TID) before meals in a divided dose (0.8 mg/kg/day; 5 mg TID) of epalrestat (Ono Pharmaceuticals, Osaka, Japan) starting on Day 1 of the study.
(§3) Safety and efficacy: Safety measures included vital signs, change in CBC, liver function (INR, bilirubin, transaminases, and albumin) in blood, change in liver elastography, and following the pharmacokinetic profile of epalrestat. The efficacy of epalrestat was studied by clinical follow up (physical exam, NPCRS, ICARS), standard laboratory tests, and transferrin glycoform analysis by mass spectrometry.

ICAM-1 = ICAM-1 protein (immunoblot) and mRNA (RT-qPCR) in PMM-deficient fibroblasts; format: cell-based, human; settings: 10 μM epalrestat
Source text: as §1

[2] = system: blood transferrin glycosylation; assay: Blood transferrin glycoform ratio analysis by mass spectrometry in patient P1; format: in vivo, human; settings: for A-oligo/Di-oligo: control ratio ≤ 0.01; for Mono-oligo/Di-oligo: control ratio ≤ 0.06
Protocol: as §2, §3

[3] = patient P1, throughout the study

SMILES: CC(/C=C1\SC(=S)N(CC(=O)O)C1=O)=C\c1ccccc1 [epalrestat]
- LAMP-2 mRNA expression (LAMP-2): no effect
- Mannitol (urine) ([1]; MAN1B1-CDG patient, second sample, after off-label epalrestat, first sample 14.92): 2) 10.13 mmol/mol creatinine
- Sorbitol (urine) ([1]; MAN1B1-CDG patient, second sample, post-treatment with epalrestat, first sample 10.44): 2) 7.222^‡ mmol/mol creatinine
- Sorbitol (urine) ([1]; SLC39A8-CDG patient, marked post-treatment with epalrestat): 18.0^‡ mmol/mol creatinine
- liver elastography Interquartile Range to Median ratio (child with PMM2-CDG; after 1 month of therapy, prior to therapy 14%): 12%
- liver elastography Interquartile Range to Median ratio (child with PMM2-CDG; at 6 months): 20%
- liver elastography Interquartile Range to Median ratio (child with PMM2-CDG; at 12 months): 8%
- liver elastography (child with PMM2-CDG; patient P1): remained normal
- adverse events (child with PMM2-CDG; patient P1, 0.27 mg/kg three times a day, 12 months): No adverse events
- CBC with differential, transaminases, bilirubin, and albumin (child with PMM2-CDG; [3]): remained normal
- antithrombin III levels and International normalized ratio (INR) (child with PMM2-CDG; [3]): remained at normal levels
- vital signs (child with PMM2-CDG; [3]): remained normal
- ICAM-1 mRNA expression (ICAM-1): no effect
- A-oligo/Di-oligo ([2]; patient P1, 1st month of epalrestat, prior to first dose 0.005): 0.005
- Mono-oligo/Di-oligo ([2]; patient P1, 1st month of epalrestat, prior to first dose 0.09): 0.14
- A-oligo/Di-oligo ([2]; patient P1, 2nd month): 0.01
- Mono-oligo/Di-oligo ([2]; patient P1, 2nd month): 0.07
- A-oligo/Di-oligo ([2]; patient P1, 3rd month): 0.004
- Mono-oligo/Di-oligo ([2]; patient P1, 3rd month): 0.08
- A-oligo/Di-oligo ([2]; patient P1, 6th month): 0.003
- Mono-oligo/Di-oligo ([2]; patient P1, 6th month): 0.06
- A-oligo/Di-oligo ([2]; patient P1, 8th month): 0.004
- Mono-oligo/Di-oligo ([2]; patient P1, 8th month): 0.06
- A-oligo/Di-oligo ([2]; patient P1, 9th month): 0.004
- Mono-oligo/Di-oligo ([2]; patient P1, 12th month, after dose correction): 0.06
- A-oligo/Di-oligo ([2]; patient P1, 12th month): 0.004

Source: patent US20240003908A1, “POLYOL BIOMARKERS FOR CONGENITAL DISORDERS OF GLYCOSYLATION” (Mayo Foundation for Medical Education and Research, priority 2020, published 2024)
